According to US20220227735A1, “THERAPEUTIC METHODS AND COMPOUNDS” (RUTGERS, THE STATE UNIVERSITY OF NEW JERSEY, priority 2019, published 2022):
Where two headings read alike, the source gives them in different places.

What was measured:
[1] = target: T1, Plasmodium falciparum PKG (PfPKG) (Plasmodium falciparum, UniProt Q8I719); assay: PfPKG IMAP fluorescence polarization kinase assay; format: biochemical
T1 construct: Full length PfPKG was cloned into the pTrcHisC vector for expression in BL21 (DE3) Star cells; His tag (pTrcHisC vector) (N); made in house; host or cells: E. coli BL21 (DE3) Star
T1 sequence (Q8I719 whole entry): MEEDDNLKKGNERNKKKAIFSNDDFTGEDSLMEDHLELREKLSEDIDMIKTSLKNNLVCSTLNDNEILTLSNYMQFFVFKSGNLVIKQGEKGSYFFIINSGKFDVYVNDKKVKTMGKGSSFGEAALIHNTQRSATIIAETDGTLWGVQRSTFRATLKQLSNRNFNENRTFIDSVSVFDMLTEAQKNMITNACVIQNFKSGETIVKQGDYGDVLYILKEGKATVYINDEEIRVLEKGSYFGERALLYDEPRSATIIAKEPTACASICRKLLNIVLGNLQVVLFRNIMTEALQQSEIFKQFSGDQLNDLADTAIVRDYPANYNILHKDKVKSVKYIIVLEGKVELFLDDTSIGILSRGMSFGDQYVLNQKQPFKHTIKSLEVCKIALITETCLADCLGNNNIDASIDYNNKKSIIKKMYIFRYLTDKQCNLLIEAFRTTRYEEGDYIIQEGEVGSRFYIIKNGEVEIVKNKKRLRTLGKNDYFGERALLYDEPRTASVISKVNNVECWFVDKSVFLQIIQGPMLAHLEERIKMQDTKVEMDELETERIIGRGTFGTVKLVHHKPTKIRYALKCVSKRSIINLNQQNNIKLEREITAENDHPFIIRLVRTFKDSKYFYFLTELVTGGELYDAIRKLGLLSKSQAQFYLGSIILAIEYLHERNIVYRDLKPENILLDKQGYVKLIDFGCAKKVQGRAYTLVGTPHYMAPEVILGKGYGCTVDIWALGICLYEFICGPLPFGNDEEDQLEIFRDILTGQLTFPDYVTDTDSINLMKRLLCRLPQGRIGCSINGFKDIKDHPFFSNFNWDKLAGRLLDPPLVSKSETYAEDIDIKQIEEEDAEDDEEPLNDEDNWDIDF
Description: Full length PfPKG was cloned into the pTrcHisC vector for expression in BL21 (DE3) Star cells. An LB culture containing 50 ug/ml carbenicillin (250 mL) was grown overnight at 37° C. The following day the culture was cooled on ice for about 10-15 minutes and divided equally into two new 125 mL cultures. 125 ml of fresh LB broth containing carbenicillin was added to each flask bringing the volume of each flask to 250 ml. Cultures were shaken at 18° C. before induction with IPTG (1.0 mM) for 18-24 h. The bacterial pellet was frozen at −80° C. until protein purification. Cells were lysed with Bacterial Protein Extraction Reagent (Thermo Scientific) on ice for 10-15 min. Supernatant was obtained after centrifugation of lysate at 21,000×g for 15 min at 4° C. Supernatant was incubated for 30 minutes at 4° C. with rotation with HisPur Cobalt Resin (Thermo Scientific), pre-washed with Wash Buffer (50 mM Hepes pH 7.8, 120 mM KCl, 20 mM NaCl, 10 mM Imidazole). Resin was added to a gravity column that was allowed to empty through gravity flow. The resin was washed with Wash buffer until no more protein is eluted off the column as determined by Bradford assay. A second wash was performed with Wash buffer containing 300 mM NaCl as in the previous wash step. Bound protein was eluted in 50 mM Hepes pH 7.8, 120 mM KCl, 20 mM NaCl, 250 mM Imidazole. Protein was dialyzed overnight in 50 mM Hepes pH 7.8, 120 mM KCl, 20 mM NaCl and 10% glycerol, with two buffer exchanges. Dialyzed protein was concentrated in a Corning Spin-X concentrator and assayed for activity using the IMAP FP Progressive Screening Expression kit (Molecular Devices, catalog #R8127) following the manufacturer's protocol.
(§1) Plasmodium falciparum PKG (PfPKG) and human PKG (hPKG) kinase activity was assayed using a commercial immobilized metal ion affinity-based fluorescence polarization (IMAP) assay according to the manufactures protocol (Molecular Devices). Briefly, kinase assays (20 μl in black half volume 96 well microtiter plates) contained; 10 mM Tris-HCl, pH 7.2, 10 mM MgCl2, 0.05% NaN3, 0.01% Tween® 20, 10 uM ATP, 1 uM cGMP and 21 ng of recombinant enzyme per well. Compounds were preincubated with enzyme at 25° C. for 15 minutes and reactions were initiated with addition of 120 nM fluorescent peptide substrates, FAM-PKAtide for PfPKG and FAM-IP3R for hPKG (Molecular Devices). Fluorescent polarization was measured using a Synergy 2 Microplate reader (BioTek, Winooski, Vt.). Fluorescent polarization was read in parallel and perpendicular with an excitation wavelength of 485 nm and an emission wavelength of 528 nm. IC50 data were analyzed using a four parameter logistic curve fit using Microsoft Excel Solver.

human PKG (hPKG) = assay: Human PKG IMAP fluorescence polarization kinase assay; format: biochemical; settings: compound at 10 μm; recombinant hPKG, 10 uM ATP, 1 uM cGMP, FAM-IP3R substrate
Source text: Human PKG, cloned into a pENTR221 vector, was obtained from DNASU.org. (HsCD00351766). It was cloned into a mammalian expression plasmid, Gateway pDEST27 (Invitrogen) for expression as a GST fusion protein, using LR Clonase II Plus enzyme (Invitrogen). The hPKG-pDEST27 plasmid was amplified in DH5a Max Efficiency Competent Cells and purified with a PureYield Plasmid Midiprep System (Promega) following the manufactures protocol. Expi293 cells were transfected with hPKG-pDEST27 using the Expifectamine 293 Transfection Kit (Gibco). After 18 hours, enhancing reagent (Gibco) was added. Cells were then collected 48 hours post-enhancing, centrifuged at 2000×g for 10 min, washed in ice cold PBS and frozen as a pellet at −80° C. until protein purification. The cell pellet was lysed with Mammalian Protein Extraction Reagent (Thermo Fisher) for 10-15 minutes. The lysate was centrifuged at 21,000×g for 15 minutes at 4° C. The supernatant was incubated for 1 h at 4° C. with glutathione resin that was pre-washed 10 times with ice cold Wash Buffer (50 mM Hepes pH 7.8, 120 mM KCl, 20 mM NaCl, 10% glycerol). The resin was loaded onto a column and washed with resin wash buffer by gravity flow until no more protein was detectable in the washes by Bradford assay. Protein was eluted with 10 mg/ml glutathione in Wash buffer. The protein was concentrated using a 30K MWCO Corning Spin X concentrator and assayed for activity as described above.
as §1

[2] = recombinant PfPKG, 10 uM ATP, 1 uM cGMP, FAM-PKAtide substrate, read-out: PfPKG (μm)

Compound | IC50 ([1]; read-out: PfPKG (μm), recombinant PfPKG, 10 uM ATP, 1 uM cGMP, FAM-PKAtide substrate) | Human PKG (10 μm) (human PKG (hPKG)) | IC50 [1, 2] | IC50 [1]
C[C@@H]1CN(C)CC[C@H]1c1cc(-c2ccncc2)c(-c2ccc(F)cc2)[nH]1 (single isomer, unassigned) [Example 32, 4-(5-(trans-1,3-dimethylpiperidin-4-yl)-2-(4-fluorophenyl)-1H-pyrrol-3-yl)pyridine] | < 1000 nM | 66 | – | –
C=Cc1c(C2CCN(C)CC2)[nH]c(-c2ccc(F)cc2)c1-c1ccncc1 [Example 17, 4-(2-(4-fluorophenyl)-5-(1-methylpiperidin-4-yl)-4-vinyl-1H-pyrrol-3-yl)pyridine] | – | 34 | < 1000 nM | –
CCOC(=O)c1c(C2CCN(C)CC2)[nH]c(-c2ccc(F)cc2)c1-c1ccncc1 [Example 16, Ethyl 5-(4-fluorophenyl)-2-(1-methylpiperidin-4-yl)-4-(pyridin-4-yl)-1H-pyrrole-3-carboxylate] | – | 18 | < 1000 nM | –
CN1CCC(c2cc(-c3ccncc3)c(-c3ccc(C(F)(F)F)cc3)[nH]2)CC1 [Example 33, 4-(5-(1-methylpiperidin-4-yl)-2-(4-(trifluoromethyl)phenyl)-1H-pyrrol-3-yl)pyridine] | – | 9 | < 1000 nM | –
CN(C)Cc1c(C2CCN(C)CC2)[nH]c(-c2ccc(F)cc2)c1-c1ccncc1 [Example 22, 1-(5-(4-fluorophenyl)-2-(1-methylpiperidin-4-yl)-4-(pyridin-4-yl)-1H-pyrrol-3-yl)-N,N-dimethylmethanamine] | – | −3 | < 1000 nM | –
CN1CCC(c2cc(-c3ccnc(Br)c3)c(-c3ccc(F)cc3)[nH]2)CC1 [Example 2, 2-bromo-4-(2-(4-fluorophenyl)-5-(1-methylpiperidin-4-yl)-1H-pyrrol-3-yl)pyridine] | – | 60 | < 1000 nM | –
CN1CCC(C)(c2cc(-c3ccncc3)c(-c3ccc(F)cc3)[nH]2)CC1 [Example 28, 4-(5-(1,4-dimethylpiperidin-4-yl)-2-(4-fluorophenyl)-1H-pyrrol-3-yl)pyridine] | – | 29 | – | < 1000 nM
CN1CCc2c(ccc3c(-c4ccncc4)c(-c4ccc(F)cc4)[nH]c23)C1 [Example 11, 2-(4-fluorophenyl)-7-methyl-3-(pyridin-4-yl)-6,7,8,9-tetrahydro-1H-pyrrolo[2,3-f]isoquinoline] | – | 35 | < 1000 nM | –
CN1CCC(c2[nH]c(-c3ccc(F)cc3)c(-c3ccncc3)c2C#N)CC1 [Example 18, 5-(4-fluorophenyl)-2-(1-methylpiperidin-4-yl)-4-(pyridin-4-yl)-1H-pyrrole-3-carbonitrile] | – | 57 | < 1000 nM | –
CN1C2CCC1CC(c1cc(-c3ccncc3)c(-c3ccc(F)cc3)[nH]1)C2 (stereo not shown) [Example 27, 3-(5-(4-fluorophenyl)-4-(pyridin-4-yl)-1H-pyrrol-2-yl)-8-methyl-8-azabicyclo[3.2.1]octane] | – | 32 | – | < 1000 nM
CN1CCC(c2cc(-c3ccncc3C#N)c(-c3ccc(F)cc3)[nH]2)CC1 [Example 8, 4-(2-(4-fluorophenyl)-5-(1-methylpiperidin-4-yl)-1H-pyrrol-3-yl)nicotinonitrile] | – | 12 | < 1000 nM | –
